Measurements as given in patent publication US20090023731A1, “SOLUBLE EPOXIDE HYDROLASE INHIBITORS” (Arete Therapeutics, Inc., priority 2007, published 2009).
Blank lines part the entries; values can stand above or below the compound they belong to.

System: soluble epoxide hydrolase (sEH)
Test: Fluorescent assay for mouse and human soluble epoxide hydrolase (CMNPC substrate)
Format: biochemical
Procedure: Recombinant mouse sEH (MsEH) and human sEH (HsEH) were produced in a baculovirus expression system as previously reported. […] The expressed proteins were purified from cell lysate by affinity chromatography. […] Protein concentration was quantified using the Pierce BCA assay using bovine serum albumin as the calibrating standard.
The IC50s for each inhibitor were according to the following procedure:
Bis/Tris HCl 25 mM pH 7.0 containing 0.1 mg/mL of BSA (buffer A) CMNPC at 0.25 mM in DMSO.
Mother solution of enzyme in buffer A (Mouse sEH at 6 μg/mL and Human sEH at 5 μg/mL). Inhibitor dissolved in DMSO at the appropriate concentration.
In a black 96 well plate, fill all the wells with 150 μL of buffer A.
Add 2 μL of DMSO in well A2 and A3, and then add 2 μL of inhibitor solution in A1 and A4 through A12.
Add […] of buffer A in row A, then mix several time and transfer […] to row B. Repeat this operation up to row H. The […] removed from row H is discarded.
Add […] of buffer A in column 1 and 2, then add […] of enzyme solution to column 3 to 12.
Incubate the plate for 5 minutes in the plate reader at 30° C.
During incubation prepare the working solution of substrate by mixing 3.68 mL of buffer A (4×0.920 mL) with 266 μL (2×133 μL) of substrate solution).
The velocities are used to analyze and calculate the IC50s.

% Inh (inhibitor conc. 500 nM): 66%
Compound: O=C(Nc1ccc(OCCN2CCOCC2)cc1)Nc1cccc(OCCCN2CCOCC2)c1 [Compound 18, 1-[4-(2-Morpholin-4-yl-ethoxy)-phenyl]-3-[3-(3-morpholin-4-yl-propoxy)-phenyl]-urea]

% Inh (inhibitor conc. 5000 nM): 94%
Compound: O=C(Nc1cccc(OCCCN2CCOCC2)c1)C1CCCCC1 [Compound 56, Cyclohexanecarboxylicacid [3-(3-morpholin-4-yl-propoxy)-phenyl]-amide]

% Inh (inhibitor conc. 5000 nM): 87%
Compound: O=C(Cc1ccc2c(c1)OCO2)Nc1cccc(OCCCN2CCOCC2)c1 [Compound 12, 2-Benzo[1,3]dioxol-5-yl-N-[3-(3-morpholin-4-yl-propoxy)-phenyl]-acetamide]

% Inh (inhibitor conc. 50 nM): 92%
Compound: O=C(Nc1ccc(F)c(OCCCN2CCOCC2)c1)NC12CC3CC(CC(C3)C1)C2 [Compound 53, 1-Adamantan-1-yl-3-[4-fluoro-3-(3-morpholin-4-yl-propoxy)-phenyl]-urea]

% Inh (inhibitor conc. 2000 nM): 95%
Compound: O=C(Nc1ccc(C(F)(F)F)cc1)N[C@H]1CC[C@H](Oc2ccc(C(=O)O)cc2)CC1 [Compound 75]

% Inh (inhibitor conc. 500 nM): 83%
Compound: O=C(Cc1ccc(C(F)(F)F)cc1)Nc1ccc(OCCCN2CCOCC2)cc1 [Compound 27, N-[4-(3-Morpholin-4-yl-propoxy)-phenyl]-2-(4-trifluoromethyl-phenyl)-acetamide]

% Inh (inhibitor conc. 50 nM): 93%
Compound: O=C(CC12CC3CC(CC(C3)C1)C2)Nc1cccc(OCCCN2CCOCC2)c1 [Compound 43, 2-Adamantan-1-yl-N-[3-(3-morpholin-4-yl-propoxy)-phenyl]-acetamide]

% Inh (inhibitor conc. 50 nM): 83%
Compound: O=C(Nc1ccc(OC(F)(F)F)cc1)Nc1ccc(F)c(OCCCN2CCOCC2)c1 [Compound 33, 1-[4-Fluoro-3-(3-morpholin-4-yl-propoxy)-phenyl]-3-(4-trifluoromethoxy-phenyl)-urea]

% Inh (inhibitor conc. 50 nM): 88%
Compound: O=C(Nc1ccc(Cl)cc1)Nc1ccc(OCCCN2CCOCC2)cc1 [Compound 26, 1-(4-Chloro-phenyl)-3-[4-(3-morpholin-4-yl-propoxy)-phenyl]-urea]

% Inh (inhibitor conc. 5000 nM): 85%
Compound: O=C(Cc1ccc(F)cc1)Nc1cccc(OCCCN2CCOCC2)c1 [Compound 11, 2-(4-Fluoro-phenyl)-N-[3-(3-morpholin-4-yl-propoxy)-phenyl]-acetamide]

% Inh (inhibitor conc. 500 nM): 85%
Compound: O=C(CC12CC3CC(CC(C3)C1)C2)NC1CCC(OCCCN2CCOCC2)CC1 (centres unmarked) [Compound 50, 2-Adamantan-1-yl-N-[4-(3-morpholin-4-yl-propoxy)-cyclohexyl]-acetamide]

% Inh (inhibitor conc. 50 nM): 87%
Compound: O=C(Nc1ccc(C(F)(F)F)cc1)Nc1ccc(F)c(OCCCN2CCOCC2)c1 [Compound 32, 1-[4-Fluoro-3-(3-morpholin-4-yl-propoxy)-phenyl]-3-(4-trifluoromethyl-phenyl)-urea]

% Inh (inhibitor conc. 5000 nM): 92%
Compound: O=C(Cc1ccc(F)c(F)c1)Nc1cccc(OCCCN2CCOCC2)c1 [Compound 19, 2-(3,4-Difluoro-phenyl)-N-[3-(3-morpholin-4-yl-propoxy)-phenyl]-acetamide]

% Inh (inhibitor conc. 50 nM): 79%
Compound: O=C(Nc1ccc(OCCCN2CCOCC2)cc1)NC1CCCCC1 [Compound 45, 1-Cyclohexyl-3-[4-(3-morpholin-4-yl-propoxy)-phenyl]-urea]

% Inh (inhibitor conc. 5000 nM): 95%
Compound: CN(C)c1cccc(NC(=O)Nc2cccc(OCCCN3CCOCC3)c2)c1 [Compound 17, 1-(3-Dimethylamino-phenyl)-3-[3-(3-morpholin-4-yl-propoxy)-phenyl]-urea]

% Inh (inhibitor conc. 5000 nM): 79%
Compound: CC(C)(C)NC(=O)Nc1cccc(OCCCN2CCOCC2)c1 [Compound 42, 1-tert-Butyl-3-[3-(3-morpholin-4-yl-propoxy)-phenyl]-urea]

% Inh (inhibitor conc. 2000 nM): 100%
Compound: O=C(Nc1ccc(C(F)(F)F)cc1)Nc1cccc(Oc2ccc(C(=O)O)cc2)c1 [Compound 69, 4-(3-(3-(4-(trifluoromethyl)phenyl)ureido)phenoxy)benzoicacid]

% Inh (inhibitor conc. 500 nM): 88%
Compound: O=C(Cc1ccc(C(F)(F)F)cc1)Nc1cccc(OCCCN2CCOCC2)c1 [Compound 24, N-[3-(3-Morpholin-4-yl-propoxy)-phenyl]-2-(4-trifluoromethyl-phenyl)-acetamide]

% Inh (inhibitor conc. 2000 nM): 98%
Compound: O=C(Nc1ccc(C(F)(F)F)cc1)Nc1cccc(Oc2cccc(C(=O)O)c2)c1 [Compound 71, 3-(3-(3-(4-(trifluoromethyl)phenyl)ureido)phenoxy)benzoicacid]

% Inh (inhibitor conc. 50 nM): 90%
Compound: O=C(Nc1ccc(OC(F)(F)F)cc1)Nc1cccc(OCCCN2CCOCC2)c1 [Compound 28, 1-[3-(3-Morpholin-4-yl-propoxy)-phenyl]-3-(4-trifluoromethoxy-phenyl)-urea]

% Inh (inhibitor conc. 500 nM): 79%
Compound: O=C(Nc1cccc(OCCCN2CCOCC2)c1)c1ccc(C(F)(F)F)cc1 [Compound 36, N-[3-(3-Morpholin-4-yl-propoxy)-phenyl]-4-trifluoromethyl-benzamide]

% Inh (inhibitor conc. 50 nM): 96%
Compound: O=C(Nc1ccc(OCCCN2CCOCC2)cc1)Nc1ccc(C(F)(F)F)cc1 [Compound 21, 1-[4-(3-Morpholin-4-yl-propoxy)-phenyl]-3-(4-trifluoromethyl-phenyl)-urea]

% Inh (inhibitor conc. 500 nM): 92%
Compound: O=C(Nc1ccc(Oc2cccc(C(=O)O)c2)cc1)Nc1ccc(C(F)(F)F)cc1 [Compound 60, 3-(4-(3-(4-(trifluoromethyl)phenyl)ureido)phenoxy)benzoic acid]

% Inh (inhibitor conc. 200 nM): 97%
Compound: O=C(NCCc1ccc(OCc2ccccc2)cc1)NCC12CC3CC(CC(C3)C1)C2 [Compound 73, 1-(4-(benzyloxy)phenethyl)-3-(adamantylmethyl)urea]

% Inh (inhibitor conc. 500 nM): 91%
Compound: O=C(Nc1cccc(OCCCN2CCOCC2)c1)Nc1ccc2c(c1)OCO2 [Compound 8, 1-Benzo[1,3]dioxol-5-yl-3-[3-(3-morpholin-4-yl-propoxy)-phenyl]-urea]

% Inh (inhibitor conc. 5000 nM): 87%
Compound: O=C(Nc1cccc(OCCCN2CCOCC2)c1)Nc1c(F)c(F)c(F)c(F)c1F [Compound 7, 1-[3-(3-Morpholin-4-yl-propoxy)-phenyl]-3-pentafluorophenyl-urea]

% Inh (inhibitor conc. 50000 nM): 75%
Compound: O=C(Cc1cccnc1)Nc1cccc(OCCCN2CCOCC2)c1 [Compound 13, N-[3-(3-Morpholin-4-yl-propoxy)-phenyl]-2-pyridin-3-yl-acetamide]

% Inh (inhibitor conc. 5000 nM): 93%
Compound: O=C(Cc1ccc(OC(F)(F)F)cc1)Nc1ccc(OCCCN2CCOCC2)cc1 [Compound 35, N-[4-(3-Morpholin-4-yl-propoxy)-phenyl]-2-(4-trifluoromethoxy-phenyl)-acetamide]

% Inh (inhibitor conc. 50 nM): 93%
Compound: O=C(CC12CC3CC(CC(C3)C1)C2)Nc1ccc(OCCCN2CCOCC2)cc1 [Compound 46, 2-Adamantan-1-yl-N-[4-(3-morpholin-4-yl-propoxy)-phenyl]-acetamide]

% Inh (inhibitor conc. 5000 nM): 90%
Compound: O=C(Nc1cccc(OCCCN2CCOCC2)c1)C12CC3CC(CC(C3)C1)C2 [Compound 55, Adamantane-1-carboxylicacid [3-(3-morpholin-4-yl-propoxy)-phenyl]-amide]

% Inh (inhibitor conc. 50 nM): 99%
Compound: O=C(Nc1cccc(OCCCN2CCOCC2)c1)NC12CC3CC(CC(C3)C1)C2 [Compound 47, 1-Adamantan-1-yl-3-[3-(3-morpholin-4-yl-propoxy)-phenyl]-urea]

% Inh (inhibitor conc. 200 nM): 89%
Compound: O=C(NCCc1ccc(OCc2ccccc2)cc1)NCCC12CC3CC(CC(C3)C1)C2 [Compound 72, 1-(4-(benzyloxy)phenethyl)-3-(adamantylethyl)urea]

% Inh (inhibitor conc. 500 nM): 73%
Compound: O=C(Cc1ccc(Cl)cc1)Nc1cccc(OCCCN2CCOCC2)c1 [Compound 22, 2-(4-Chloro-phenyl)-N-[3-(3-morpholin-4-yl-propoxy)-phenyl]-acetamide]

% Inh (inhibitor conc. 50 nM): 94%
Compound: O=C(NC1CCCC(OCCCN2CCOCC2)C1)NC12CC3CC(CC(C3)C1)C2 (centres unmarked) [Compound 48, 1-Adamantan-1-yl-3-[3-(3-morpholin-4-yl-propoxy)-cyclohexyl]-urea]

% Inh (inhibitor conc. 50 nM): 75%
Compound: O=C(Nc1cccc(OCCCN2CCOCC2)c1)Nc1ccc(F)c(F)c1 [Compound 4, 1-(3,4-Difluoro-phenyl)-3-[3-(3-morpholin-4-yl-propoxy)-phenyl]-urea]

% Inh (inhibitor conc. 500 nM): 96%
Compound: S=C(Nc1cccc(OCCCN2CCOCC2)c1)NC12CC3CC(CC(C3)C1)C2 [Compound 61]

% Inh (inhibitor conc. 500 nM): 96%
Compound: O=C(Nc1ccc(Cl)cc1)Nc1ccc(F)c(OCCCN2CCOCC2)c1 [Compound 30, 1-(4-Chloro-phenyl)-3-[4-fluoro-3-(3-morpholin-4-yl-propoxy)-phenyl]-urea]

% Inh (inhibitor conc. 500 nM): 72%
Compound: O=C(Cc1ccc(Cl)cc1)Nc1ccc(OCCCN2CCOCC2)cc1 [Compound 20, 2-(4-Chloro-phenyl)-N-[4-(3-morpholin-4-yl-propoxy)-phenyl]-acetamide]

% Inh (inhibitor conc. 50 nM): 82%
Compound: O=C(Nc1ccc(C(F)(F)F)cc1)Nc1cccc(OCCCN2CCOCC2)c1 [Compound 9, 1-[3-(3-Morpholin-4-yl-propoxy)-phenyl]-3-(4-trifluoromethyl-phenyl)-urea]

% Inh (inhibitor conc. 500 nM): 78%
Compound: O=C(Nc1ccc(F)cc1)Nc1ccc(F)c(OCCCN2CCOCC2)c1 [Compound 31, 1-[4-Fluoro-3-(3-morpholin-4-yl-propoxy)-phenyl]-3-(4-fluoro-phenyl)-urea]

Compound: O=C(Nc1ccc(Oc2ccc(C(=O)O)cc2)cc1)Nc1ccc(OC(F)(F)F)cc1 [Compound 64, 4-(4-(3-(4-(trifluoromethoxy)phenyl)ureido)phenoxy)benzoic acid]
% Inh (inhibitor conc. 2000 nM): 100%
